Results on 25 molecules are retold here after patent publication US11207325B2, “Triazolopyrimidine compounds and uses thereof” (Novartis AG, priority 2014, dated 2021).

In the experiment the test system is H3K27 methylation in G401 cell. The experiment in a line: ELISA (H3K27 methylation) assay. The experiment is classed as cell-based. To be noted: Homo sapiens, G-401; ELISA Qualified assay (H3K27 methylation); read-out: (c) IC50 (μM), ELISA Qualified. The source says: ELISA (H3K27 Methylation) Assay
Background: ELISA stands for enzyme-linked immunosorbent assay.
Consider `Nc1ccc(-c2cnc(NCc3cccc4c3CCO4)n3cnnc23)cn1` [Example 48, 8-(6-aminopyridin-3-yl)-N-((2,3-dihydrobenzofuran-4-yl)methyl)-[1,2,4]triazolo[4,3-c]pyrimidin-5-amine], for which the 50% inhibitory concentration (IC50) came out at 0.261 µM.

`Cc1cc(-c2cnc(NCc3cccc4c3CCO4)n3cnnc23)ccc1C(=O)N(C)C` [Example 49, 4-(5-(((2,3-dihydrobenzofuran-4-yl)methyl)amino)-[1,2,4]triazolo[4,3-c]pyrimidin-8-yl)-N,N,2-trimethylbenzamide]: the half-maximal inhibitory concentration (IC50) was 0.366 µM. As for `Clc1ccncc1-c1cnc(NCc2cccc3c2CCO3)n2cnnc12` [Example 50, 8-(4-chloropyridin-3-yl)-N-((2,3-dihydrobenzofuran-4-yl)methyl)-[1,2,4]triazolo[4,3-c]pyrimidin-5-amine], the IC50 came out at 0.12 µM. Regarding `Cc1ccc(-c2cnc(NCc3cccc4c3CCO4)n3cnnc23)cn1` [Example 52], the IC50 was 0.106 µM.

On to `CN(C)CCc1ccc(-c2cnc(NCc3cccc4c3CCO4)n3cnnc23)cn1` [Example 53, N-((2,3-dihydrobenzofuran-4-yl)methyl)-8-(6-(2-(dimethylamino)ethyl)pyridin-3-yl)-[1,2,4]triazolo[4,3-c]pyrimidin-5-amine], for which the IC50 was 0.141 µM.

With `COc1ncc(-c2cnc(NCc3cccc4c3CCO4)n3cnnc23)cn1` [Example 54, N-((2,3-dihydrobenzofuran-4-yl)methyl)-8-(2-methoxypyrimidin-5-yl)-[1,2,4]triazolo[4,3-c]pyrimidin-5-amine], the IC50 amounted to 0.144 µM. As to `CN(C)C(=O)c1ccc(-c2cnc(NCc3c(F)ccc4c3CCO4)n3cnnc23)cc1` [Example 55, 4-(5-(((5-fluoro-2,3-dihydrobenzofuran-4-yl)methyl)amino)-[1,2,4]triazolo[4,3-c]pyrimidin-8-yl)-N,N-dimethylbenzamide], the 50% inhibitory concentration (IC50) amounted to 0.0131 µM. With `CS(=O)(=O)c1ccc(-c2cnc(NCc3c(F)ccc4c3CCO4)n3cnnc23)cn1` [Example 56, N-((5-fluoro-2,3-dihydrobenzofuran-4-yl)methyl)-8-(6-(methylsulfonyl)pyridin-3-yl)-[1,2,4]triazolo[4,3-c]pyrimidin-5-amine], the half-inhibitory concentration (IC50) came to 0.0493 µM. Regarding `Cc1ccc(-c2cnc(NCc3c(F)ccc4c3CCO4)n3cnnc23)cn1` [Example 57, N-((5-fluoro-2,3-dihydrobenzofuran-4-yl)methyl)-8-(6-methylpyridin-3-yl)-[1,2,4]triazolo[4,3-c]pyrimidin-5-amine], the IC50 worked out at 0.0334 µM. As for `Nc1cc(F)c(-c2cnc(NCc3cccc4c3CCO4)n3cnnc23)cn1` [Example 58, 8-(6-amino-4-fluoropyridin-3-yl)-N-((2,3-dihydrobenzofuran-4-yl)methyl)-[1,2,4]triazolo[4,3-c]pyrimidin-5-amine], the IC50 came out at 0.124 µM. For the molecule `Cc1noc(C)c1-c1cnc(NCc2cccc3c2CCO3)n2cnnc12` [Example 59, N-((2,3-dihydrobenzofuran-4-yl)methyl)-8-(3,5-dimethylisoxazol-4-yl)-[1,2,4]triazolo[4,3-c]pyrimidin-5-amine], the IC50 is 0.086 µM. Take `Cc1ncc(-c2cnc(NCc3cccc4c3CCO4)n3cnnc23)cn1` [Example 60, N-((2,3-dihydrobenzofuran-4-yl)methyl)-8-(2-methylpyrimidin-5-yl)-[1,2,4]triazolo[4,3-c]pyrimidin-5-amine]: the IC50 is 0.299 µM. Turning to `CN(C)c1ccc(-c2cnc(NCc3cccc4c3CCO4)n3cnnc23)cn1` [Example 61, N-((2,3-dihydrobenzofuran-4-yl)methyl)-8-(6-(dimethylamino)pyridin-3-yl)-[1,2,4]triazolo[4,3-c]pyrimidin-5-amine], the 50% inhibitory concentration (IC50) was found to be 0.175 µM. `N#Cc1ccc(-c2cnc(NCc3cccc4c3CCO4)n3cnnc23)cn1` [Example 62, 5-(5-(((2,3-dihydrobenzofuran-4-yl)methyl)amino)-[1,2,4]triazolo[4,3-c]pyrimidin-8-yl)picolinonitrile]: the IC50 amounted to 0.339 µM.

`CCOc1ccc(-c2cnc(NCc3cccc4c3CCO4)n3cnnc23)cn1` [Example 63, N-((2,3-dihydrobenzofuran-4-yl)methyl)-8-(6-ethoxypyridin-3-yl)-[1,2,4]triazolo[4,3-c]pyrimidin-5-amine]: the IC50 turned out to be 0.198 µM. Then `Cc1c(-c2cnc(NCc3cccc4c3CCO4)n3cnnc23)cnn1C` [Example 64, N-((2,3-dihydrobenzofuran-4-yl)methyl)-8-(1,5-dimethyl-1H-pyrazol-4-yl)-[1,2,4]triazolo[4,3-c]pyrimidin-5-amine], with 0.0978 µM; and `c1cc(CNc2ncc(-c3ccc(C4CC4)nc3)c3nncn23)c2c(c1)OCC2` [Example 65, 8-(6-cyclopropylpyridin-3-yl)-N-((2,3-dihydrobenzofuran-4-yl)methyl)-[1,2,4]triazolo[4,3-c]pyrimidin-5-amine], with 0.11 µM. For `COCCn1nc(C)c(-c2cnc(NCc3cccc4c3CCO4)n3cnnc23)c1C` [Example 66, N-((2,3-dihydrobenzofuran-4-yl)methyl)-8-(1-(2-methoxyethyl)-3,5-dimethyl-1H-pyrazol-4-yl)-[1,2,4]triazolo[4,3-c]pyrimidin-5-amine], the concentration for half-maximal inhibition (IC50) was found to be 0.0803 µM. As for `Cc1nn(CCO)c(C)c1-c1cnc(NCc2cccc3c2CCO3)n2cnnc12` [Example 67, 2-(4-(5-(((2,3-dihydrobenzofuran-4-yl)methyl)amino)-[1,2,4]triazolo[4,3-c]pyrimidin-8-yl)-3,5-dimethyl-1H-pyrazol-1-yl)ethanol], the concentration for half-maximal inhibition (IC50) was 0.521 µM. As to `O=C(c1ccc(-c2cnc(NCc3cccc4c3CCO4)n3cnnc23)cn1)N1CCOCC1` [Example 68, (5-(5-(((2,3-dihydrobenzofuran-4-yl)methyl)amino)-[1,2,4]triazolo[4,3-c]pyrimidin-8-yl)pyridin-2-yl)(morpholino)methanone], the IC50 worked out at 0.378 µM. Then `Cc1cc(-c2cnc(NCc3cccc4c3CCO4)n3cnnc23)cnc1S(C)(=O)=O` [Example 70, N-((2,3-dihydrobenzofuran-4-yl)methyl)-8-(5-methyl-6-(methylsulfonyl)pyridin-3-yl)-[1,2,4]triazolo[4,3-c]pyrimidin-5-amine], with 0.0839 µM.

On to `Cc1noc(C)c1-c1cnc(NCc2c(F)ccc3c2CCO3)n2cnnc12` [Example 71, 8-(3,5-dimethylisoxazol-4-yl)-N-((5-fluoro-2,3-dihydrobenzofuran-4-yl)methyl)-[1,2,4]triazolo[4,3-c]pyrimidin-5-amine], for which the half-inhibitory concentration (IC50) amounted to 0.0426 µM. As for `CN1CCN(C(=O)c2ccc(-c3cnc(NCc4c(F)ccc5c4CCO5)n4cnnc34)cc2)CC1` [Example 72, (4-(5-(((5-fluoro-2,3-dihydrobenzofuran-4-yl)methyl)amino)-[1,2,4]triazolo[4,3-c]pyrimidin-8-yl)phenyl)(4-methylpiperazin-1-yl)methanone], the half-maximal inhibitory concentration (IC50) is 0.0097 µM. As to `Cc1cc(-c2cnc(NCc3cccc4c3CCO4)n3cnnc23)cnc1N1CCOCC1` [Example 73, N-((2,3-dihydrobenzofuran-4-yl)methyl)-8-(5-methyl-6-morpholinopyridin-3-yl)-[1,2,4]triazolo[4,3-c]pyrimidin-5-amine], the half-maximal inhibitory concentration (IC50) was determined as 0.332 µM. As for `CS(=O)(=O)CCOc1ccc(-c2cnc(NCc3cccc4c3CCO4)n3cnnc23)cc1` [Example 75, N-((2,3-dihydrobenzofuran-4-yl)methyl)-8-(4-(2-(methylsulfonyl)ethoxy)phenyl)-[1,2,4]triazolo[4,3-c]pyrimidin-5-amine], the concentration for half-maximal inhibition (IC50) came out at 0.298 µM.

Broadly, the IC50 is the midpoint of a concentration-inhibition curve.
